PMC2248166, “Quantitative peptide binding motifs for 19 human and mouse MHC class I molecules derived using positional scanning combinatorial peptide libraries” (Immunome Research, 2008)

What was measured:
Type in all cases: binding
HLA A*6802 = HLA A*6802 (Homo sapiens, UniProt P04439, A269V/D140Y/D185E/E176V/E277Q/E87N/F33Y/G231S/I121R/I166T/I218V/L180W/L300P/L318F/N151K/P208A/P217A/Q86R/R138H/R169H/S129P/T345S/V36M)
HLA B*5301 = HLA B*5301 (Homo sapiens, UniProt P01889, A329T/A93T/A95T/C349S/D201E/D98Y/E176V/E187L/E204Q/E69T/G107R/I218V/K202T/L105A/L119I/N104I/Q94N/R106L/R155S/R180L/S101N/S121R/S35A/S48A/T118I/V127L/V306I/V36M/Y140S/Y91F)
HLA B*5802 = HLA B*5802 (Homo sapiens, UniProt P01889, A329T/C349S/D201E/D98Y/E176V/E187L/E204Q/E69T/G107R/I218V/I90N/K202T/L105A/N104I/N87E/Q89R/Q94S/R106L/R155S/R180L/R86G/S101N/S121W/S35A/S48A/V127L/V306I/V36M/Y140S/Y91M)
HLA B*5401 = HLA B*5401 (Homo sapiens, UniProt P01889, A329T/C349S/D138N/D201E/E176V/E187T/E204Q/E69G/I76V/K202T/L119W/R155S/R180L/S121T/S35A/S48A/V127L/V306I/V36M/Y140L)
HLA B*1501 = HLA B*1501 (Homo sapiens, UniProt P01889, A329T/A93T/A95T/C349S/D201E/D98Y/E187L/E204Q/E69M/E70A/K202T/N87E/Q94N/R155S/R180W/S121R/S35A/S48A/V306I/V36M/Y140S/Y91S); experiment: biochemical
H-2 D^b = H-2 D^b (Mus musculus, UniProt P01899)
Chain of H-2 D^b (P01887 21-119): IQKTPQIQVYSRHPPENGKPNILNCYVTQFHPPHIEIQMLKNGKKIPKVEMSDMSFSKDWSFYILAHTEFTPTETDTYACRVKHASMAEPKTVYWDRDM
Chain of H-2 D^b (P01899 25-362): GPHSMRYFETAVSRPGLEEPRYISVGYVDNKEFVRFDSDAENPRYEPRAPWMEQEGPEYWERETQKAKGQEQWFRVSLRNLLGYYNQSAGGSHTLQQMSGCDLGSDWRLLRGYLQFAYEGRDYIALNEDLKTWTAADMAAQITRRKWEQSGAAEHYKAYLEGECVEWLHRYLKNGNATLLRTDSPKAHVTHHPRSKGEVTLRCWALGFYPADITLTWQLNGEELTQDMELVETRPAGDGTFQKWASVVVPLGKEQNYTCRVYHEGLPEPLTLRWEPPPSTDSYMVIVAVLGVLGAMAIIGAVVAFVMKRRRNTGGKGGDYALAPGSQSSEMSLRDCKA

HLA A*3201 = HLA A*3201 (Homo sapiens, UniProt P04439, A270S/D101S/D185E/E176V/E277Q/F133L/G103R/G107R/G231S/H175R/I121M/I218V/I322F/K168Q/L105A/L300P/L318F/M331R/P208A/P217A/Q94H/R106L/R138Q/S129P/T104I/T323A/T345S/V100E/V321M/V358M); experiment: biochemical
HLA B*3501 = HLA B*3501 (Homo sapiens, UniProt P01889, A329T/A93T/A95T/C349S/D201E/D98Y/E176V/E187L/E204Q/E69T/I218V/K202T/L119I/Q94N/R155S/R180L/S121R/S35A/S48A/T118I/V127L/V306I/V36M/Y140S/Y91F)
HLA B*5801 = HLA B*5801 (Homo sapiens, UniProt P01889, A329T/C349S/D201E/D98Y/E176V/E187L/E204Q/E69T/G107R/I218V/I90N/K202T/L105A/L119I/N104I/N87E/Q89R/Q94S/R106L/R155S/R180L/R86G/S101N/S121R/S35A/S48A/T118I/V127L/V306I/V36M/Y140S/Y91M)
H-2 D^d = H-2 D^d (Mus musculus, UniProt P01900)
Chain of H-2 D^d (P01900 whole entry, looked up): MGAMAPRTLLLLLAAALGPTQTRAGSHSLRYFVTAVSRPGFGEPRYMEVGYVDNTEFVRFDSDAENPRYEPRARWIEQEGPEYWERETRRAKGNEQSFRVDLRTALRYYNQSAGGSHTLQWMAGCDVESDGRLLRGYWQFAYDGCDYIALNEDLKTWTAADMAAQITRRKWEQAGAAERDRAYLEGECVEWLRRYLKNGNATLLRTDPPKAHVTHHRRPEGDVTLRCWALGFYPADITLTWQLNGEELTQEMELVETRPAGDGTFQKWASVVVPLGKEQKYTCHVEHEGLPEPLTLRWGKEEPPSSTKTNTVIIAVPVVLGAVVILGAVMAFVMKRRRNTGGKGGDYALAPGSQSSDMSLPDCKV

HLA B*5101 = HLA B*5101 (Homo sapiens, UniProt P01889, A329T/A93T/A95T/C349S/D138N/D201E/D98Y/E187L/E204Q/E69T/G107R/I218V/K202T/L105A/L119W/N104I/Q94N/R106L/R155S/R180L/S101N/S121T/S35A/S48A/V306I/V36M/Y195H/Y91F)
H-2 K^d = H-2 K^d (Mus musculus, UniProt P01902)
Chain of H-2 K^d (P01887 21-119): as the sequence (P01887 21-119) above
Chain of H-2 K^d (P01902 22-368): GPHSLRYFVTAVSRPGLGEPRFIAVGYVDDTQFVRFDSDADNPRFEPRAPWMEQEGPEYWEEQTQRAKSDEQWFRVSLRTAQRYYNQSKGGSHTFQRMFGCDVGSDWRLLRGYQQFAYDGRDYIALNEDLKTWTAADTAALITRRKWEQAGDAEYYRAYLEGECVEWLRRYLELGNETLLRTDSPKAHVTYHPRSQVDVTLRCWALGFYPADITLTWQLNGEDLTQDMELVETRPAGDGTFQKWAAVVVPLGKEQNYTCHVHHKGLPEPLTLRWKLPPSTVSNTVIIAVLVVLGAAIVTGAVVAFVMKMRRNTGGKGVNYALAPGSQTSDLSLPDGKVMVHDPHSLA

HLA B*0801 = HLA B*0801 (Homo sapiens, UniProt P01889, A93T/A95T/D138N/E176V/E187T/K202T/Q94N/R180D/S35A/V36M/Y33D/Y91F); experiment: biochemical
HLA A*3001 = HLA A*3001 (Homo sapiens, UniProt P04439, D140H/D185E/E176W/F33S/G80R/H175R/K168Q/R138E/R41S); experiment: biochemical
HLA B*1503 = HLA B*1503 (Homo sapiens, UniProt P01889, A329T/A93T/A95T/C349S/D201E/D98Y/E187L/E204Q/K202T/N87E/Q94N/R155S/R180L/S121R/S35A/V306I/V36M/Y140S/Y91S); experiment: biochemical
H-2 K^k = H-2 K^k (Mus musculus, UniProt P04223)
Chain of H-2 K^k (P01887 21-119): as the sequence (P01887 21-119) above
Chain of H-2 K^k (P04223 22-369): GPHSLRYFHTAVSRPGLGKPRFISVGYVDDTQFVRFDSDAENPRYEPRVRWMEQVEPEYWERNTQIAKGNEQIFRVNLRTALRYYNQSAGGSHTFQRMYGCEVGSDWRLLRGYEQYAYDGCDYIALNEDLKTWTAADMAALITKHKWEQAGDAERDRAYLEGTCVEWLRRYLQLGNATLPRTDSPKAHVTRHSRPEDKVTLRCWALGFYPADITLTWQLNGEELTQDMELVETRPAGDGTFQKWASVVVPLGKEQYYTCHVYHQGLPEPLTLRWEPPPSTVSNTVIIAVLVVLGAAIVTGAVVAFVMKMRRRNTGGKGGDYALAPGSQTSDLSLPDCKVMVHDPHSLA

## XXXXXXXCX [3064.0142]
HLA A*6802
  Normalized average relative binding affinity(ARB): 0.19
HLA B*5301
  Normalized average relative binding affinity(ARB): 0.078
HLA B*5802
  Normalized average relative binding affinity(ARB): 0.21
HLA B*5401
  Normalized average relative binding affinity(ARB): 0.74
HLA B*1501
  Normalized average relative binding affinity(ARB): 0.18
H-2 D^b
  Normalized average relative binding affinity(ARB): 0.12
HLA A*3201
  Normalized average relative binding affinity(ARB): 0.11
HLA B*3501
  Normalized average relative binding affinity(ARB): 0.087
HLA B*5801
  Normalized average relative binding affinity(ARB): 0.18
H-2 D^d
  Normalized average relative binding affinity(ARB): 0.78
HLA B*5101
  Normalized average relative binding affinity(ARB): 0.38
H-2 K^d
  Normalized average relative binding affinity(ARB): 0.28
HLA B*0801
  Normalized average relative binding affinity(ARB): 0.22
HLA A*3001
  Normalized average relative binding affinity(ARB): 0.11
HLA B*1503
  Normalized average relative binding affinity(ARB): 0.11
H-2 K^k
  Normalized average relative binding affinity(ARB): 0.37

## XXXXXXXDX [3064.0143]
HLA A*6802
  Normalized average relative binding affinity(ARB): 0.093
HLA B*5301
  Normalized average relative binding affinity(ARB): 0.082
HLA B*5802
  Normalized average relative binding affinity(ARB): 0.087
HLA B*5401
  Normalized average relative binding affinity(ARB): 0.038
HLA B*1501
  Normalized average relative binding affinity(ARB): 0.049
H-2 D^b
  Normalized average relative binding affinity(ARB): 0.090
HLA A*3201
  Normalized average relative binding affinity(ARB): 0.10
HLA B*3501
  Normalized average relative binding affinity(ARB): 0.073
HLA B*5801
  Normalized average relative binding affinity(ARB): 0.063
H-2 D^d
  Normalized average relative binding affinity(ARB): 0.44
HLA B*5101
  Normalized average relative binding affinity(ARB): 0.17
H-2 K^d
  Normalized average relative binding affinity(ARB): 0.62
HLA B*0801
  Normalized average relative binding affinity(ARB): 0.17
HLA A*3001
  Normalized average relative binding affinity(ARB): 0.052
HLA B*1503
  Normalized average relative binding affinity(ARB): 0.14
H-2 K^k
  Normalized average relative binding affinity(ARB): 0.26

## XXXXXXXEX [3064.0144]
HLA A*6802
  Normalized average relative binding affinity(ARB): 0.14
HLA B*5301
  Normalized average relative binding affinity(ARB): 0.10
HLA B*5802
  Normalized average relative binding affinity(ARB): 0.30
HLA B*5401
  Normalized average relative binding affinity(ARB): 0.13
HLA B*1501
  Normalized average relative binding affinity(ARB): 0.23
H-2 D^b
  Normalized average relative binding affinity(ARB): 0.33
HLA A*3201
  Normalized average relative binding affinity(ARB): 0.27
HLA B*3501
  Normalized average relative binding affinity(ARB): 0.098
HLA B*5801
  Normalized average relative binding affinity(ARB): 0.18
H-2 D^d
  Normalized average relative binding affinity(ARB): 0.65
HLA B*5101
  Normalized average relative binding affinity(ARB): 0.34
H-2 K^d
  Normalized average relative binding affinity(ARB): 0.55
HLA B*0801
  Normalized average relative binding affinity(ARB): 0.24
HLA A*3001
  Normalized average relative binding affinity(ARB): 0.12
HLA B*1503
  Normalized average relative binding affinity(ARB): 0.11
H-2 K^k
  Normalized average relative binding affinity(ARB): 0.46

## XXXXXXXFX [3064.0145]
HLA A*6802
  Normalized average relative binding affinity(ARB): 0.31
HLA B*5301
  Normalized average relative binding affinity(ARB): 0.46
HLA B*5802
  Normalized average relative binding affinity(ARB): 0.33
HLA B*5401
  Normalized average relative binding affinity(ARB): 0.080
HLA B*1501
  Normalized average relative binding affinity(ARB): 0.32
H-2 D^b
  Normalized average relative binding affinity(ARB): 0.79
HLA A*3201
  Normalized average relative binding affinity(ARB): 0.24
HLA B*3501
  Normalized average relative binding affinity(ARB): 0.13
HLA B*5801
  Normalized average relative binding affinity(ARB): 1.0
H-2 D^d
  Normalized average relative binding affinity(ARB): 0.75
HLA B*5101
  Normalized average relative binding affinity(ARB): 1.0
H-2 K^d
  Normalized average relative binding affinity(ARB): 0.66
HLA B*0801
  Normalized average relative binding affinity(ARB): 0.32
HLA A*3001
  Normalized average relative binding affinity(ARB): 0.76
HLA B*1503
  Normalized average relative binding affinity(ARB): 0.21
H-2 K^k
  Normalized average relative binding affinity(ARB): 1.0

## XXXXXXXGX [3064.0146]
HLA A*6802
  Normalized average relative binding affinity(ARB): 0.31
HLA B*5301
  Normalized average relative binding affinity(ARB): 0.094
HLA B*5802
  Normalized average relative binding affinity(ARB): 0.87
HLA B*5401
  Normalized average relative binding affinity(ARB): 0.083
HLA B*1501
  Normalized average relative binding affinity(ARB): 0.15
H-2 D^b
  Normalized average relative binding affinity(ARB): 0.043
HLA A*3201
  Normalized average relative binding affinity(ARB): 0.54
HLA B*3501
  Normalized average relative binding affinity(ARB): 0.098
HLA B*5801
  Normalized average relative binding affinity(ARB): 0.21
H-2 D^d
  Normalized average relative binding affinity(ARB): 0.62
HLA B*5101
  Normalized average relative binding affinity(ARB): 0.20
H-2 K^d
  Normalized average relative binding affinity(ARB): 0.63
HLA B*0801
  Normalized average relative binding affinity(ARB): 0.099
HLA A*3001
  Normalized average relative binding affinity(ARB): 0.18
HLA B*1503
  Normalized average relative binding affinity(ARB): 0.18
H-2 K^k
  Normalized average relative binding affinity(ARB): 0.32

## XXXXXXXHX [3064.0147]
HLA A*6802
  Normalized average relative binding affinity(ARB): 0.046
HLA B*5301
  Normalized average relative binding affinity(ARB): 0.74
HLA B*5802
  Normalized average relative binding affinity(ARB): 0.26
HLA B*5401
  Normalized average relative binding affinity(ARB): 0.043
HLA B*1501
  Normalized average relative binding affinity(ARB): 1.0
H-2 D^b
  Normalized average relative binding affinity(ARB): 0.073
HLA A*3201
  Normalized average relative binding affinity(ARB): 0.49
HLA B*3501
  Normalized average relative binding affinity(ARB): 0.15
HLA B*5801
  Normalized average relative binding affinity(ARB): 0.18
H-2 D^d
  Normalized average relative binding affinity(ARB): 0.11
HLA B*5101
  Normalized average relative binding affinity(ARB): 0.33
H-2 K^d
  Normalized average relative binding affinity(ARB): 0.096
HLA B*0801
  Normalized average relative binding affinity(ARB): 0.15
HLA A*3001
  Normalized average relative binding affinity(ARB): 0.44
HLA B*1503
  Normalized average relative binding affinity(ARB): 0.84
H-2 K^k
  Normalized average relative binding affinity(ARB): 0.0052

## XXXXXXXIX [3064.0148]
HLA A*6802
  Normalized average relative binding affinity(ARB): 0.051
HLA B*5301
  Normalized average relative binding affinity(ARB): 1.0
HLA B*5802
  Normalized average relative binding affinity(ARB): 0.41
HLA B*5401
  Normalized average relative binding affinity(ARB): 0.11
HLA B*1501
  Normalized average relative binding affinity(ARB): 0.18
H-2 D^b
  Normalized average relative binding affinity(ARB): 0.14
HLA A*3201
  Normalized average relative binding affinity(ARB): 0.60
HLA B*3501
  Normalized average relative binding affinity(ARB): 0.55
HLA B*5801
  Normalized average relative binding affinity(ARB): 0.39
H-2 D^d
  Normalized average relative binding affinity(ARB): 0.25
HLA B*5101
  Normalized average relative binding affinity(ARB): 0.21
H-2 K^d
  Normalized average relative binding affinity(ARB): 0.30
HLA B*0801
  Normalized average relative binding affinity(ARB): 0.39
HLA A*3001
  Normalized average relative binding affinity(ARB): 0.21
HLA B*1503
  Normalized average relative binding affinity(ARB): 0.33
H-2 K^k
  Normalized average relative binding affinity(ARB): 0.56

## XXXXXXXKX [3064.0149]
HLA A*6802
  Normalized average relative binding affinity(ARB): 0.12
HLA B*5301
  Normalized average relative binding affinity(ARB): 0.78
HLA B*5802
  Normalized average relative binding affinity(ARB): 0.15
HLA B*5401
  Normalized average relative binding affinity(ARB): 0.099
HLA B*1501
  Normalized average relative binding affinity(ARB): 0.24
H-2 D^b
  Normalized average relative binding affinity(ARB): 0.076
HLA A*3201
  Normalized average relative binding affinity(ARB): 0.24
HLA B*3501
  Normalized average relative binding affinity(ARB): 0.36
HLA B*5801
  Normalized average relative binding affinity(ARB): 0.14
H-2 D^d
  Normalized average relative binding affinity(ARB): 0.24
HLA B*5101
  Normalized average relative binding affinity(ARB): 0.20
H-2 K^d
  Normalized average relative binding affinity(ARB): 0.23
HLA B*0801
  Normalized average relative binding affinity(ARB): 0.14
HLA A*3001
  Normalized average relative binding affinity(ARB): 0.12
HLA B*1503
  Normalized average relative binding affinity(ARB): 0.085
H-2 K^k
  Normalized average relative binding affinity(ARB): 0.13
